# Molecular target: recombinant USP30 (amino acids 57-517 of the human sequence) (Homo sapiens (Human), UniProt Q70CQ3)
# Assay: In vitro USP30 biochemical assay (Ubiquitin-Rhodamine substrate)
# Conditions: 1.5 nM recombinant USP30, 25 nM Ubiquitin-Rhodamine, fluorescence
# Experimental: In vitro biochemical assay to establish the potency of compounds for USP30 inhibition: a 384-well plate assay using a fluorophore tagged substrate of USP30 was used for in vitro screening of compounds. Each compound was tested at
# 10 different concentrations (0.5 to 10,000 nM) in duplicate wells. […] Data were analyzed using Graph Pad Prism software with a four-parameter (floating slope) fit to log concentration data to determine IC50s.
# Chain of recombinant USP30 (amino acids 57-517 of the human sequence) (Q70CQ3 57-517): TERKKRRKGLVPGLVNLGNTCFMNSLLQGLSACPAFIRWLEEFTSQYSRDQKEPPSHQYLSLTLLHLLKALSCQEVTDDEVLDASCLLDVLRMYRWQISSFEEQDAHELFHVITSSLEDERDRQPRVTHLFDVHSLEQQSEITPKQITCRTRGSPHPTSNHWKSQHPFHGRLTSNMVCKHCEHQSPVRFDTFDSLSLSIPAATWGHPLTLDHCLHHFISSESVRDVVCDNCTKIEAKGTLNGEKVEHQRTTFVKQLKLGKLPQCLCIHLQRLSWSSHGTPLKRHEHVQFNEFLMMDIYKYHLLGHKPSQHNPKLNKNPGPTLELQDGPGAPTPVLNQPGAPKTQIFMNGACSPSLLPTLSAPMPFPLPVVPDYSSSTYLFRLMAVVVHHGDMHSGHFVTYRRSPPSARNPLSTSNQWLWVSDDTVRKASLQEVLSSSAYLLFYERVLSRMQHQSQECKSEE
row,Structure (SMILES),IC50
1,CC(C)C[C@H](NC(=O)c1ccc(F)cc1)C(=O)Nc1ccc(S(=O)(=O)NC(C)(C)C(F)(F)F)cc1 [Compound I-221],0.05 to 1 µM
2,O=C(N[C@@H](Cc1ccccc1)C(=O)Nc1ccc(S(=O)(=O)NCc2ccncn2)cc1)c1ccc(F)cc1 [Compound I-222],0.05 to 1 µM
3,O=C(N[C@@H](Cc1ccccc1)C(=O)Nc1ccc(S(=O)(=O)NCc2cnccn2)cc1)c1ccc(F)cc1 [Compound I-223],0.05 to 1 µM
4,Cn1nccc1CNS(=O)(=O)c1ccc(NC(=O)[C@H](CC2CCNCC2)NC(=O)c2ccc(F)cc2)cc1 [Compound I-224],0.05 to 1 µM
5,O=C(N[C@@H](Cc1ccccc1)C(=O)Nc1ccc(S(=O)(=O)NCc2ncccn2)cc1)c1ccc(F)cc1 [Compound I-228],0.05 to 1 µM
6,CC(C)C[C@H](NC(=O)c1ccc(F)cc1)C(=O)Nc1ccc(S(=O)(=O)NC(C)(C)CF)cc1 [Compound I-230],0.05 to 1 µM
7,CC(C)(C)NS(=O)(=O)c1ccc(NC(=O)[C@H](Cc2ccccc2)NC(=O)C2CCN(C#N)CC2)cc1 [Compound I-233],0.05 to 1 µM
8,CN1CCC(C[C@H](NC(=O)c2ccc(F)cc2)[C@@H](O)CNc2ccc(S(=O)(=O)NC(C)(C)C)cc2)CC1 [Compound I-234],1 to 10 µM
9,CC(C)(C)NS(=O)(=O)c1ccc(NC[C@H](O)[C@H](CC2CCNCC2)NC(=O)c2ccc(F)cc2)cc1 [Compound I-235],1 to 10 µM
10,CC(C)(C)NS(=O)(=O)c1ccc(NC[C@H](O)[C@H](Cc2ccncc2)NC(=O)c2ccc(F)cc2)cc1 [Compound I-236],0.05 to 1 µM
11,Cn1nccc1CCNS(=O)(=O)c1ccc(NC(=O)[C@H](Cc2ccccc2)NC(=O)c2ccc(F)cc2)cc1 [Compound I-237],0.05 to 1 µM
12,O=C(N[C@@H](Cc1ccccc1)C(=O)Nc1ccc(S(=O)(=O)NCc2cnc[nH]2)cc1)c1ccc(F)cc1 [Compound I-239],0.05 to 1 µM
13,N#CN1CC(NC(=O)[C@H](Cc2ccccc2)NC(=O)c2ccc(F)cc2)C1 [Compound I-241],0.05 to 1 µM
14,CC(C)(C)NS(=O)(=O)c1ccc(NC(=O)[C@H](CCO)NC(=O)c2ccc(F)cc2)cc1 [Compound I-242],0.05 to 1 µM
15,CC(C)(C)NS(=O)(=O)c1ccc(NC(=O)[C@H](CC#N)NC(=O)c2ccc(F)cc2)cc1 [Compound I-243],0.05 to 1 µM
16,CC(C)C[C@H](NC(=O)c1ccccc1)C(=O)NC1CN(C(=O)OCc2ccccc2)C1 [Compound I-247],1 to 10 µM
17,COc1cc(NC(=O)[C@@H]2C[C@@H](C3CCCCC3)CN2C(=O)c2ccc(F)cc2)cnc1S(=O)(=O)NC(C)(C)C [Compound I-255],1 to 10 µM
18,COc1cc(NC(=O)[C@@H]2C[C@@H](C3CCCCC3)CN2C(=O)c2ccc(F)cc2)ccc1S(=O)(=O)NC(C)(C)C [Compound I-257],0.05 to 1 µM
19,O=C(Nc1ccc(S(=O)(=O)N[C@@H]2CCOC2)cc1)[C@@H]1C[C@@H](c2ccccc2)CN1C(=O)c1ccc(F)cc1 [Compound I-261],1 to 10 µM
20,CC(C)(CO)NS(=O)(=O)c1ccc(NC(=O)[C@@H]2C[C@@H](c3ccccc3)CN2C(=O)c2ccc(F)cc2)cc1 [Compound I-262],1 to 10 µM
21,COc1cc(NC(=O)[C@@H]2C[C@@H](c3ccccc3)CN2C(=O)c2ccc(F)cc2)ccc1S(=O)(=O)NC1COC1 [Compound I-265],0.05 to 1 µM
22,O=C(Nc1ccc(S(=O)(=O)N[C@@H]2CCOC2)nc1)[C@@H]1C[C@@H](c2ccccc2)CN1C(=O)c1ccc(F)cc1 [Compound I-270],1 to 10 µM
23,O=C(Nc1ccc(S(=O)(=O)NC2COC2)nc1)[C@@H]1C[C@@H](c2ccccc2)CN1C(=O)c1ccc(F)cc1 [Compound I-271],1 to 10 µM
24,CO[C@@H]1C[C@@H](C(=O)Nc2ccc(S(=O)(=O)N[C@@H]3CCOC3)cc2)N(C(=O)c2ccc(F)cc2)C1 [Compound I-277],0.05 to 1 µM
25,CC(C)(C)NS(=O)(=O)c1ccc(NC(=O)[C@@H]2C[C@H](c3ccccc3)CN2C(=O)c2ccc(F)cc2)cc1 [Compound I-283],0.05 to 1 µM
26,CC(=O)O[C@H]1C[C@@H](C(=O)Nc2ccc(S(=O)(=O)NC(C)(C)C)cc2)N(C(=O)c2ccc(F)cc2)C1 [Compound I-285],1 to 10 µM

# Further lines, results first:
row,IC50,Structure (SMILES)
1,0.05 to 1 µM,CC(C)C[C@H](NC(=O)c1ccc(F)cc1)C(=O)Nc1ccc(S(=O)(=O)NCc2ccnn2C)cc1 [Compound I-225]
2,0.05 to 1 µM,O=C(N[C@@H](Cc1ccccc1)C(=O)Nc1ccc(S(=O)(=O)NCc2ccn[nH]2)cc1)c1ccc(F)cc1 [Compound I-226]
3,1 to 10 µM,CN(C(=O)c1ccc(F)cc1)[C@@H](Cc1ccccc1)C(=O)Nc1ccc(S(=O)(=O)NCc2ccnn2C)cc1 [Compound I-229]
4,0.05 to 1 µM,CN1CCC(C[C@H](NC(=O)c2ccc(F)cc2)C(=O)Nc2ccc(S(=O)(=O)NCc3ccnn3C)cc2)CC1 [Compound I-231]
5,1 to 10 µM,O=C(N[C@@H](Cc1ccccc1)C(=O)Nc1ccc(S(=O)(=O)NCc2nnc[nH]2)cc1)c1ccc(F)cc1 [Compound I-232]
6,0.05 to 1 µM,CN(C)CC[C@H](NC(=O)c1ccc(F)cc1)C(=O)Nc1ccc(S(=O)(=O)NC(C)(C)C)cc1 [Compound I-240]
7,0.05 to 1 µM,CC(C)(C)NS(=O)(=O)c1ccc(NC(=O)[C@@H]2C[C@@H](C3CCCCC3)CN2C(=O)c2ccc(F)cc2)cc1 [Compound I-253]
8,1 to 10 µM,CC(C)(CO)NS(=O)(=O)c1ccc(NC(=O)[C@@H]2C[C@@H](C3CCCCC3)CN2C(=O)c2ccc(F)cc2)cc1 [Compound I-254]
9,1 to 10 µM,CC(C)(CO)NS(=O)(=O)c1ccc(NC(=O)[C@@H]2C[C@@H](C3CCCCC3)CN2C(=O)c2ccc(F)cc2)cn1 [Compound I-258]
10,0.05 to 1 µM,COc1cc(NC(=O)[C@@H]2C[C@@H](C3CCCCC3)CN2C(=O)c2ccc(F)cc2)ccc1S(=O)(=O)NC(C)(C)CO [Compound I-259]
11,0.05 to 1 µM,CC(C)(C)NS(=O)(=O)c1ccc(NC(=O)[C@@H]2C[C@@H](C3CCCCC3)CN2C(=O)c2ccc(F)cc2)cn1 [Compound I-260]
12,1 to 10 µM,O=C(Nc1ccc(S(=O)(=O)NC2COC2)cc1)[C@@H]1C[C@@H](c2ccccc2)CN1C(=O)c1ccc(F)cc1 [Compound I-263]
13,1 to 10 µM,CO[C@@H]1C[C@@H](C(=O)Nc2ccc(S(=O)(=O)NC(C)(C)C)cc2)N(C(=O)c2ccc(F)cc2)C1 [Compound I-267]
14,1 to 10 µM,CC(C)(C)NS(=O)(=O)c1ccc(NC(=O)[C@@H]2C[C@H](O)CN2C(=O)c2ccc(F)cc2)cc1 [Compound I-279]
15,1 to 10 µM,CC(=O)O[C@@H]1C[C@@H](C(=O)Nc2ccc(S(=O)(=O)N[C@@H]3CCOC3)cc2)N(C(=O)c2ccc(F)cc2)C1 [Compound I-286]

# Same assay, conditions: […] recombinant USP30, 25 nM Ubiquitin-Rhodamine, fluorescence
row,Structure (SMILES),IC50
1,CC(C)(C)NS(=O)(=O)c1ccc(NC(=O)C(CC(N)=O)NC(=O)c2ccc(F)cc2)cc1 (stereo not drawn) [Compound I-244],> 10 µM
2,CC(C)(C)NS(=O)(=O)c1ccc(NC(=O)C2CCCCN2C(=O)c2ccc(F)cc2)cc1 (stereo not drawn) [Compound I-245],> 10 µM
3,CC(C)C[C@H](NC(=O)c1ccc(F)cc1)C(=O)NC1CN(C(=O)OCc2ccccc2)C1 [Compound I-248],> 10 µM
4,CC(C)C[C@H](NC(=O)c1ccccc1)C(=O)NC1CN(C#N)C1 [Compound I-249],< 0.05 µM
5,CC1(NC(=O)[C@H](Cc2ccccc2)NC(=O)c2ccc(F)cc2)CN(C#N)C1 [Compound I-250],< 0.05 µM
6,CC(C)C[C@H](NC(=O)c1ccc(F)cc1)C(=O)NC1CN(C#N)C1 [Compound I-251],< 0.05 µM
7,CC1(NC(=O)[C@H](Cc2ccccc2)NC(=O)c2ccc(F)cc2)CN(C(=O)OCc2ccccc2)C1 [Compound I-252],> 10 µM
8,COc1cc(NC(=O)[C@@H]2C[C@@H](C3CCCCC3)CN2C(=O)c2ccc(F)cc2)cnc1S(=O)(=O)NC(C)(C)CO [Compound I-256],> 10 µM
9,CC(C)(C)NS(=O)(=O)c1ccc(NC(=O)[C@@H]2C[C@@H](O)CN2C(=O)c2ccc(F)cc2)cc1 [Compound I-264],> 10 µM
10,CC(C)(CO)NS(=O)(=O)c1ccc(NC(=O)[C@@H]2C[C@@H](O)CN2C(=O)c2ccc(F)cc2)cc1 [Compound I-275],> 10 µM
11,O=C(Nc1ccc(S(=O)(=O)NC2COC2)cc1)[C@@H]1C[C@@H](O)CN1C(=O)c1ccc(F)cc1 [Compound I-276],> 10 µM
12,CC(C)(CO)NS(=O)(=O)c1ccc(NC(=O)[C@@H]2C[C@H](O)CN2C(=O)c2ccc(F)cc2)cc1 [Compound I-280],> 10 µM
13,O=C(Nc1ccc(S(=O)(=O)NC2COC2)cc1)[C@@H]1C[C@H](O)CN1C(=O)c1ccc(F)cc1 [Compound I-281],> 10 µM
14,CO[C@H]1C[C@@H](C(=O)Nc2ccc(S(=O)(=O)N[C@@H]3CCOC3)cc2)N(C(=O)c2ccc(F)cc2)C1 [Compound I-288],> 10 µM
15,CO[C@H]1C[C@@H](C(=O)Nc2ccc(S(=O)(=O)NC3COC3)cc2)N(C(=O)c2ccc(F)cc2)C1 [Compound I-289],> 10 µM

# Other lines, results leading:
row,IC50,Structure (SMILES)
1,< 0.05 µM,Cn1cnc(CNS(=O)(=O)c2ccc(NC(=O)[C@H](Cc3ccccc3)NC(=O)c3ccc(F)cc3)cc2)c1 [Compound I-238]
2,> 10 µM,N#CC1CC[C@@H](NC(=O)[C@H](Cc2ccccc2)NC(=O)c2ccc(F)cc2)C1 (stereo partly drawn) [Compound I-246]
3,> 10 µM,CO[C@@H]1C[C@@H](C(=O)Nc2ccc(S(=O)(=O)NC(C)(C)CO)cc2)N(C(=O)c2ccc(F)cc2)C1 [Compound I-268]
4,> 10 µM,CO[C@@H]1C[C@@H](C(=O)Nc2ccc(S(=O)(=O)NC3COC3)cc2)N(C(=O)c2ccc(F)cc2)C1 [Compound I-278]
5,> 10 µM,O=C(Nc1ccc(S(=O)(=O)N[C@@H]2CCOC2)cc1)[C@@H]1C[C@H](O)CN1C(=O)c1ccc(F)cc1 [Compound I-282]
6,> 10 µM,CC(=O)O[C@H]1C[C@@H](C(=O)Nc2ccc(S(=O)(=O)N[C@@H]3CCOC3)cc2)N(C(=O)c2ccc(F)cc2)C1 [Compound I-284]
7,< 0.05 µM,CC(C)N1CCC(C[C@H](NC(=O)c2ccc(F)cc2)C(=O)Nc2ccc(S(=O)(=O)NC(C)(C)C)cc2)CC1 [Compound I-287]
